Assay results: patent US7648959B2, “Methods and compositions for the treatment of diseases of the eye” (Merck Patent GmbH, priority 2000, dated 2010)
“And” between values parts separate entries of the source, which are not always exact repeats. Equal entries are not always repeated.

Tested on: bFGF-Stimulated Corneal Angiogenesis
Assay: rabbit corneal micropocket model, paralimbal intrascleral injection
Assay type: in vivo
Details: for Area of neovascularisation, MEAN / Area of neovascularisation (individual eye): single (Day 0) intrascleral injection, 100 μl, 2.0 mg/ml in PBS; for Area of neovascularisation, MEAN: mean of 12 eyes; for Area of neovascularisation (individual eye): one value per rabbit eye (R/L); for neovascularisation inhibited compared to the animal group receiving PBS only: single intrascleral injection 100 μl, 2.0 mg/ml, p<0.01
Experimental: (1996). In this model angiogenesis is stimulated by implantation of Hydron pellets containing an angiogenesis stimulating cytokine like, for example, fibroblast growth factor (FGF) or vascular endothelial growth factor (VEGF) into the cornea. After implantation the active compound to be tested is administered by paralimbal intrascleral injection. Effect on neovascularisation is measured after predetermined time intervals by visual examination using a microscope, photographing and computer-assisted quantification of photographs.
The effect of intrascleral application of an αvβ3 and/or αvβ5 inhibitor was examined in rabbit corneal micropocket model as described by Shaffer R. W. (see above). As an example for an αvβ3 and/or αvβ5 inhibitor (2S)-2-(2,2-dimethylpropyloxycarboxamido)-3-{3,4-dihydro-2-[N-(2-imidazolyl)carbamoylethyl]-(2S)-2H-1,4-benzoxazin-3-on-6-yl}propionic acid was used in the experiment. For induction of angiogenesis Hydron pellets containing basic fibroblast growth factor (bFGF) were used. Preparation of bFGF containing implants was performed by casting Hydron [poly(hydroxyethyl)methacrylate] in specially prepared Teflon pegs that have a 5 mm core drilled into their surfaces. Approximately 12 μl of casting material was placed into each peg and polymerized overnight in a sterile hood, then sterilized by ultraviolet irradiation.
The experiment consisted of 12 animals; in each eye of the animals one individual pellet was implanted into a surgically created “pocket” in the mid stroma of the rabbit cornea. The surgical procedure was done under sterile technique using a Wild model M691 operating microscope equipped with a beamsplitter and camera for photographically recording individual corneas. A 69 Beaver blade was used to create a 3 mm by 5 mm “pocket” to a depth of half the corneal thickness. The stroma was dissected peripherally using an spatula and the pellet implanted with its peripheral margin 2 mm from limbus. Immediately after implantation of bFGF-containing Hydron pellets 6 of the 12 animals received in each eye 100 μl of a drug solution consisting of 2.0 mg/ml (2S)-2-(2,2-dimethylpropyloxycarboxamido)-3-3,4-dihydro-2-[N-(2-imidazolyl)carbamoylethyl]-(2S)-2H-1,4-benzoxazin-3-on-6-yl}propionic acid solubilized in phosphate buffered saline (PBS) by paralimbal intrascleral injection. For comparison the same procedure was performed in the other 6 animals using PBS only. Following implantation the eyes were photographed and the area of neovascularisation measured after predetermined intervals.

## CC(C)(C)COC(=O)N[C@@H](Cc1ccc2c(c1)NC(=O)[C@H](CCC(=O)Nc1ncc[nH]1)O2)C(=O)O [(2S)-2-(2,2-dimethylpropyloxycarboxamido)-3-{3,4-dihydro-2-[N-(2-imidazolyl)carbamoylethyl]-(2S)-2H-1,4-benzoxazin-3-on-6-yl}propionic acid]
5 Day Post-Implantation
  Area of neovascularisation, MEAN: 8.39 mm^2
  Area of neovascularisation (individual eye): 3.47 mm^2 and 26.79 mm^2 and 14.76 mm^2 and 7.70 mm^2 and 1.00 mm^2 and 0.88 mm^2 and 8.19 mm^2 and 2.26 mm^2 and 0.0 mm^2 and 7.31 mm^2 and 15.85 mm^2 and 12.45 mm^2
7 Day Post-Implantation
  Area of neovascularisation, MEAN: 10.32 mm^2
  Area of neovascularisation (individual eye): 6.69 mm^2 and 27.96 mm^2 and 15.58 mm^2 and 11.32 mm^2 and 2.09 mm^2 and 1.91 mm^2 and 11.93 mm^2 and 3.51 mm^2 and 0.0 mm^2 and 11.56 mm^2 and 16.90 mm^2 and 14.40 mm^2
5 days post implantation
  neovascularisation inhibited compared to the animal group receiving PBS only: 56.5%
7 days post implantation
  neovascularisation inhibited compared to the animal group receiving PBS only: 52.3%
